Test results from BindingDB's records for doi:10.1021/jm034088d (Abbott Laboratories, 2003).

Molecular target: Tyrosine-protein phosphatase non-receptor type 11, SHP-2 (Homo sapiens) (UniProt Q06124)
Test: Inhibitory activity against SH-domain containing phosphotyrosine phosphatase-2 (Tyrosine phosphatase SHP2) was determined

Tyrosine-protein phosphatase non-receptor type 11, SHP-2 (Homo sapiens), sequence (Q06124 whole entry, looked up): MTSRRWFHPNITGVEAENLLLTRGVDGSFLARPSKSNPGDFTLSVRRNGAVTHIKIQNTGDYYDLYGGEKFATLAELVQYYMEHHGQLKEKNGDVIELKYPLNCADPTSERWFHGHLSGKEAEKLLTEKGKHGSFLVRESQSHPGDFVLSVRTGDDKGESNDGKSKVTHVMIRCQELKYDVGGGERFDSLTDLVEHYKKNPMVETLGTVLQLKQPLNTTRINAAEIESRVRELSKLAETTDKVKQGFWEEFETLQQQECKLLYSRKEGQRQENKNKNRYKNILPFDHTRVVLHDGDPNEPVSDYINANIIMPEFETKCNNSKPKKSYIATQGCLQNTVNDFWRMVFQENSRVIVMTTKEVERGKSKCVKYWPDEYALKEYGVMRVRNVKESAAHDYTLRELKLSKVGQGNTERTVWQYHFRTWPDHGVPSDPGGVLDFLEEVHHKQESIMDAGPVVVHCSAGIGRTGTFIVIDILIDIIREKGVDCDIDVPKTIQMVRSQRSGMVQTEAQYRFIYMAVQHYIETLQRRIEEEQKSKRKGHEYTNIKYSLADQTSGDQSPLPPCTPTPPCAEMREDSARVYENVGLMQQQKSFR

Row | SMILES | Ki
1 | C=CCOC(=O)N[C@@H](Cc1ccc(N(C(=O)C(=O)O)c2ccccc2C(=O)O)cc1)C(=O)NCCCCOc1cccc(O)c1C(=O)OC [(S)-2-(N-(4-(2-(allyloxycarbonylamino)-3-(4-(3-hydroxy-2-(methoxycarbonyl)phenoxy)butylamino)-3-oxopropyl)phenyl)-1-carboxyformamido)benzoic acid] | 96 µM
2 | CCc1cc(CC(NC(C)=O)C(=O)NCCCCOc2cc(Cl)cc(O)c2C(=O)OC)ccc1N(C(=O)C(=O)O)c1ccccc1C(=O)O (configuration not stated) [2-[4-(2-Acetylamino-3-{4-[(2-carboxy-phenyl)-oxalyl-amino]-3-ethyl-phenyl}-propionylamino)-butoxy]-4-chloro-6-hydroxy-benzoic acid methyl ester] | > 3 µM
